Source: patent US20040136985A1, “Methods of modifying behavior of CD9-expressing cells” (priority 2002, published 2004)
“Also recorded” adds a separate entry of the source. Like-named read-outs stand apart in the source and are kept apart here. Where no end group is shown, it is not given here.

Key:
FN [1] = test: ELISA for fibronectin binding to immobilized CD9, His6-rCD9 or peptide; design: species or system human; conditions: for soluble FN binding to immobilized peptide compared to intact platelet purified CD9: FN 75 μg/ml
Experimental: (§1) All incubation periods for the CD9/FN binding ELISA lasted two hours at RT unless otherwise indicated. Immulon I (Dynatech) microtiter plate wells were coated with CD9 (2 μg/ml), His6-rCD9 (2 μg/ml), BSA (10 μg/ml), or peptide (10 μM) in Buffer A. After one wash with Buffer B, plates were blocked with Blocking Buffer 1.1% BSA was included in steps from ligand overlay to addition of mAb conjugate to minimize non-specific binding. Titrations of human plasma FN in Buffer B were added to plates either alone, or in the case of competition ELISAs, with 0-160 μM synthetic peptide. Plates were washed three times with ELISA Buffer B, followed by incubation with a 1/1000 dilution of rabbit anti-FN antibody. After two washes with Buffer B and one wash with Buffer C, plates were incubated with 1/500 antirabbit IgG alkaline phosphatase in Buffer C for one hour at RT. After four washes with Buffer C, 1 mg/mlp-nitrophenyl phosphate substrate was added and the absorbance at 405 nm was recorded.

[2] = tested on: mAb7 binding to CD9 expressed on CHO A6 cells; test: Flow cytometry: peptide blocking of mAb7 binding to CD9 on CHO A6 cells; design: species or system human; conditions: 100 μg peptide with 1 μg mAb7
Experimental: 100 μg of peptide 5a, 5, 5b, or 6a was incubated with 1 μg mAb7 for 30 minutes at room temperature. CD9 CHO cells (clone A6) were harvested, washed twice with PBS, and resuspended in labeling media (2.5×10^5 cells/mL); 4 μL mAb7-peptide solution was added to 2.5×10^5 cells and incubated for 1 hour at 4° C. MOPC2, and mAb7 alone were used as negative and positive controls, respectively. Cells were washed with PBS, resuspended in labeling media, and bound mAb7 was detected with a species-specific FITC-conjugated second antibody, followed by flow cytometry as described above.

CHO A6 cells = test: Basic adhesion assay of CHO A6 cells on FN; type: cell-based; conditions: 0.5 μM peptide, 3 hours
Experimental: 24-well culture plate wells were coated with human plasma FN (10 μg/mL FN in PBS for 3 hours at 37° C.) and blocked with PBS, 3% bovine serum albumin (BSA) for 1 hour at 37° C. Mock- and CD9-CHO cells were harvested as described previously. After a 30-minute rest period at 37° C., 10^5 cells/well were seeded in FN-coated 24-well plates and incubated for 3 hours at 37° C. For some experiments, cells were incubated in the presence of 0.5 μM of peptides corresponding to amino acid sequences of CD9 EC2. Wells were washed 4 times with adhesion media, stained with modified Wright Giemsa, and adherent cells were counted in five randomly selected high-power fields of view per well using an inverted phase contrast microscope, Olympus IMT-2 (Olympus, Lake Success, N.Y.). All assays were run in triplicate, and the cell counts were reported as the number of adherent cells/mm^2 of well surface area. The mean number of adherent cells/mm^2±SE of 3 independent assays were reported (n=45).

CD9-CHO-B2 cells = test: Adhesion of CD9-CHO-B2 cells (lacking integrin α5β1) to FN, peptide inhibition; type: cell-based; conditions: peptide 0.5 μM
Experimental: CHO cell adhesion assays were done as described by Cook et al. (Exp. Cell. Res. 251:356-371 (1999), which is hereby incorporated by reference in its entirety). Briefly, 24-well cell culture plates (Coming, Acton, Mass.) were coated with FN (10 μg/ml) and blocked with PBS, 3% BSA. CHO cells were cell synchronized, harvested, and resuspended at 1×10^5 cell/ml in adhesion media (RPMI, 1% BSA). For peptide inhibition studies, peptides were added to CHO cell suspension to give a final concentration of 0.5 μM and cells were incubated at 37° C. for 30 minutes. 1 ml CHO cell suspension was added to each well and CHO cells were allowed to adhere for either 3 or 6 hours, then adherent cells were stained with Wright Giemsa and counted.

CD9-CHO cells = type: cell-based; conditions: FN coated inserts blocked with peptide (0.5 μM)
Experimental: The motility assays were performed using two methodologies. The first method was modified from Bauer et al. (J. Cell. Biol. 116:477-487 (1992), which is hereby incorporated by reference in its entirety). Cell cycle synchronized CHO cells were seeded into tissue culture plates, grown to approximately 50% confluency, and harvested. The cells were washed twice with Media A, adjusted to 4×10^5/ml, allowed to rest at 37° C. for 30 min in Media B, then transferred into modified Boyden chambers. The upper and lower chambers were separated by a polycarbonate filter, with 8 μm pores, pre-coated on the underside only with 10 μg/ml FN. After 3 or 6 hours, cells on the FN-coated side of the filters were fixed, stained with hematoxylin, and mounted onto slides. The total numbers of adherent cells from five high-powered fields (HPF) per filter were counted per time point per assay. The second method for assessing the motility of CD9-transfected CHO cells utilized 10 mm polycarbonate tissue culture inserts with 8 μm pores (Nunc, Rochester, N.Y.). Tissue culture inserts were coated on the underside with FN as described above for Boyden Chambers. […] CHO cells adhered to the FN-coated underside of tissue culture inserts were stained with Wrights Giemsa and the number of adherent cells in five random high power fields were counted per time point per assay. […]

human coronary SMCs [3] = test: Verification that hydroxyurea prevents SMC proliferation (thymidine incorporation); type: cell-based; conditions: 5 mM hydroxyurea
Experimental: (§2) Cell migration was measured via a monolayer-wounding assay, as described by Brown et al. (Circ Res. 84:655-667 (1999), which is hereby incorporated by reference in its entirety). Briefly, 100% confluent cells were treated with serum-free medium containing hydroxyurea (5 mM)(DMEM supplemented with 100 U/mL penicillin, 100 μg/mL streptomycin and 5 mM hydroxyurea) for 24 h before the start of experiments. Hydroxyurea was used to prevent cell proliferation and block the possible effect of CD9 on SMCs proliferation. The capacity of hydroxyurea to prevent proliferation was verified by showing that it inhibited thymidine incorporation by >99%. After incubation with hydroxyurea, cells were rinsed with DMEM (serum free), and a ≈1 mm wide scratch was made with a sterile 20 ul tip with the help of a ruler. After that, the cells were incubated in the DMEM medium. […] Plates were rinsed twice with PBS, and analyzed via computerized image analysis system (scion Image CMS-800). Cell migration was expressed as the distance migrated in the 24 hours (Chang et al., Circ. Res. 91(5):390-397 (2002), which is hereby incorporated by reference in its entirety). […]

FN-CD9 binding = test: Competition ELISA: effect of peptides on FN binding to immobilized CD9; design: species or system human
Experimental: as §1

human coronary SMCs [4] = test: SMC migration, monolayer-wounding assay; type: cell-based; conditions: 2% serum, 24 h
Experimental: as §2

FN/CD9 interaction = test: ELISA modified for effects of metal salts on the FN/CD9 interaction; type: binding, human; conditions: 0-4.5 mM metal salt
Experimental: The standard ELISA assay format was modified to evaluate the effects of divalent and monovalent metal salts on the FN/CD9 interaction. The ELISA buffers contained 0.5 mM EGTA and metal salt was excluded from antigen plating and primary wash step. Antigen was plated in Buffer D. The plates were washed once with Buffer E and then blocked with Blocking Buffer 2. Subsequent steps up to and including the second wash after the FN overlay were done in Buffer F, which contained 0-4.5 mM metal salt. After the FN overlay, plates were washed once with Buffer F (+/−metal salt), then twice with Buffer G. The subsequent incubations and washes were performed with Buffer G.

FN [5] = target: FN (Homo sapiens, UniProt P02751); test: Surface plasmon resonance biosensor analysis of FN captured by anti-FN mAbs; type: binding
[6] = FN concentration, 2.5 mM Ca2+, read-out: half maximal binding with FN

FN (Homo sapiens, UniProt P02751), sequence (P02751 32-2477): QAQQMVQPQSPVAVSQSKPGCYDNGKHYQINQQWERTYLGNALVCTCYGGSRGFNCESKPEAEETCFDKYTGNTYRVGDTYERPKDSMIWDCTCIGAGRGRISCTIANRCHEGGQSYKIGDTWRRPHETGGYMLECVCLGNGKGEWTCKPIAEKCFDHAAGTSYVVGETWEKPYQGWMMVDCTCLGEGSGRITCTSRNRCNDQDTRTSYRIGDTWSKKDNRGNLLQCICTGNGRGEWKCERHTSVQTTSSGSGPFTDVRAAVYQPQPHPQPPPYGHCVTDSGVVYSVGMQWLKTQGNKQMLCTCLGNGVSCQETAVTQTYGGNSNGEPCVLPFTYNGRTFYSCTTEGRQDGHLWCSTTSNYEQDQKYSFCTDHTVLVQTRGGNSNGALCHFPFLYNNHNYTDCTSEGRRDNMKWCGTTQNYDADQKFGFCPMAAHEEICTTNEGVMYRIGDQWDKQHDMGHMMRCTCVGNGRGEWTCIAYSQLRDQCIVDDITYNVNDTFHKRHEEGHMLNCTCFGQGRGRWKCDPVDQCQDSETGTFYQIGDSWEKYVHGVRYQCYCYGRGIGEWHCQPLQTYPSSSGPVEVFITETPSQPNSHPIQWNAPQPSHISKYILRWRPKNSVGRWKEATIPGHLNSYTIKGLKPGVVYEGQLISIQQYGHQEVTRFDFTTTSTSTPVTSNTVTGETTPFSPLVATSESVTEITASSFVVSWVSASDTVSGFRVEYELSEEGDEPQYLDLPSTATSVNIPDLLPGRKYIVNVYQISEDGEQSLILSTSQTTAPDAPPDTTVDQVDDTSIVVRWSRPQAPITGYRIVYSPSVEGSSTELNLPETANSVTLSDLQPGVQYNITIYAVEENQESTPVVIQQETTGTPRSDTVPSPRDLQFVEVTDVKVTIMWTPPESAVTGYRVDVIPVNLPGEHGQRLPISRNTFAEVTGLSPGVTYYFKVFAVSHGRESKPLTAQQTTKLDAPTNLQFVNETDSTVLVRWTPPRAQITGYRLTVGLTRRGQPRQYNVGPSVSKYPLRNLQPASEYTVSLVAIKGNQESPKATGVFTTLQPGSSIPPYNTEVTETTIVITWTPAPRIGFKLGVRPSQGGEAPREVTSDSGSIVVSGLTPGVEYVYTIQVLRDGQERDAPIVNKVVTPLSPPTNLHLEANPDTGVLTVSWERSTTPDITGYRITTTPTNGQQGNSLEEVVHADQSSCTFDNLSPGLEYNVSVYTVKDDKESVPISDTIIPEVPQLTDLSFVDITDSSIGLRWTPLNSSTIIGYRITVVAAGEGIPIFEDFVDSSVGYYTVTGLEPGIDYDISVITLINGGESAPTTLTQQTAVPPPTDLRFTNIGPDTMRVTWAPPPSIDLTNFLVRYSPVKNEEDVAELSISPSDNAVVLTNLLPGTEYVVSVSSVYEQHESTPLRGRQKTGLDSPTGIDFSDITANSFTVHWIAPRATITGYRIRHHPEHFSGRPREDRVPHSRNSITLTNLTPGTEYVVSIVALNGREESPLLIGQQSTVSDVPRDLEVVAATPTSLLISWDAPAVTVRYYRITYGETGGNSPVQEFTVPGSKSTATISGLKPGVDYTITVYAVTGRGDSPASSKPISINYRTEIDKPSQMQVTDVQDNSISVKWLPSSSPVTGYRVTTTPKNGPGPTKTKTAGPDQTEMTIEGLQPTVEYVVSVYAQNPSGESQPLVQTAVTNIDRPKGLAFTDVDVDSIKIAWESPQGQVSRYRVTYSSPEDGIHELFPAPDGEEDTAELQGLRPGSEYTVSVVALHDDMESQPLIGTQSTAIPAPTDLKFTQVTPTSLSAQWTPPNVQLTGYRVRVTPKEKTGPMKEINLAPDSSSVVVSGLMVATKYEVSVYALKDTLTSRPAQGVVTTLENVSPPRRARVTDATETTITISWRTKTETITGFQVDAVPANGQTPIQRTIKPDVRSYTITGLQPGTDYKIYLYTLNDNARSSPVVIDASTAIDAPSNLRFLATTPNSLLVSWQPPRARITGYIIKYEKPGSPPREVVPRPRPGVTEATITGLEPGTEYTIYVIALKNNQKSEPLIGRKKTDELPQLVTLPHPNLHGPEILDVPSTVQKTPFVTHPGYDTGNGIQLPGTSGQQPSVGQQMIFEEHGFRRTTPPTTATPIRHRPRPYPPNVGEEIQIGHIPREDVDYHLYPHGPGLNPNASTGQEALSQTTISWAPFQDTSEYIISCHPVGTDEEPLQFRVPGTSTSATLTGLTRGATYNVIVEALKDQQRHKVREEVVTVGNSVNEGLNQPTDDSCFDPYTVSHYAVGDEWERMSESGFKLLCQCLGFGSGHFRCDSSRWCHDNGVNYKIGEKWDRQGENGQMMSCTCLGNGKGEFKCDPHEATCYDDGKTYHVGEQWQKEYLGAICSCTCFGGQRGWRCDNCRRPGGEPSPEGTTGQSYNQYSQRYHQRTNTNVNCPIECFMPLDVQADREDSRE

YKDTYNKLKTKDEPQRETLKAI [peptide 5]
soluble FN binding to immobilized peptide compared to intact platelet purified CD9 (FN [1]): 19%
blocking of mAb7 binding to cell surface CD9 [2]: neither peptide 5a nor 5 blocked
effect on adhesive phenotype of CHO A6 cells on FN (CHO A6 cells): no effect

YSHKDEVIKEVQEFYKDTYNKLKT [peptide 5a]
blocking of mAb7 binding to cell surface CD9 [2]: neither peptide 5a nor 5 blocked

KEFDFKAPSVCKVEDIDTKTL [peptide 6S, reference compound]
effect on CD9-CHO-B2 cell adhesion to FN (CD9-CHO-B2 cells): no significant effect
effect on CD9-mediated CHO cell motility to FN (CD9-CHO cells): lack of inhibition

NC(=O)NO [hydroxyurea]
inhibition at 5000 µM (human coronary SMCs [3]): > 99%

PKKDVLETFTVKSCPDAIKEVFDNK [peptide 6]
direct binding of FN (FN [1]): binds directly
soluble FN binding to immobilized peptide compared to intact platelet purified CD9 (FN [1]): 65%
inhibition of FN binding to CD9 (FN-CD9 binding; peptide 0-160 μM): significantly inhibited; also recorded: competitively inhibited binding of FN to purified CD9 in a dose-dependent fashion; also recorded: partially inhibited
peptide concentration at maximal inhibition of FN binding to CD9 (FN-CD9 binding; titration 0-160 μM): 60 µM
effect on CD9-CHO-B2 cell adhesion to FN (CD9-CHO-B2 cells): able to block
effect on CD9-CHO-B2 cell adhesion to FN (CD9-CHO-B2 cells; listed as Peptide 6): inhibited the adhesion level of CD9-CHO-B2 cells on FN to that seen with Mock-CHO-B2 cells
effect on CD9-mediated CHO cell motility to FN (CD9-CHO cells): competitively inhibited
blocking of mAb7 binding to cell surface CD9 [2]: blocked mAb7 binding to soluble CD9 and to CD9 on intact cells
effect on adhesive phenotype of CHO A6 cells on FN (CHO A6 cells): reversed the adhesive phenotype
effect on SMC migration (human coronary SMCs [4]): dose dependent inhibitory effect
maximal inhibitory effect on serum-induced migration (human coronary SMCs [4]; at 40 μM): ~65%

[Ca+2].[Cl-].[Cl-] [CaCl2]
effect of cation on CD9/FN interaction (FN/CD9 interaction): stimulated

PKKDVLETFTVKSCPDAI [peptide 6a]
blocking of mAb7 binding to cell surface CD9 [2]: blocked mAb7 binding
effect on adhesive phenotype of CHO A6 cells on FN (CHO A6 cells): equivalent to that of CHO MOCK cells; also recorded: reversed the inhibitory influence of CD9

His6-rCD9: bacterially expressed histidine tagged recombinant CD9
EC50 (FN [1]; [6]): 120 nM
binding to FN lower than for purified CD9 (absolute ELISA values) (FN [1]; versus purified platelet CD9): 40%

CD9: purified platelet CD9, 24 kDa integral membrane glycoprotein (SEQ ID NO: 1)
half-maximal binding of soluble FN to immobilized CD9 (FN [1]; 2.5 mM CaCl2, FN concentration): 35.6 µg/mL
EC50 (FN [1]; 2.5 mM CaCl2, FN concentration, read-out: half-maximal binding of soluble FN to immobilized CD9): 81 nM
EC50 (FN [1]; [6]): 81 nM
Kd (FN [1]; platelet-derived or recombinant CD9, read-out: affinity of FN-CD9 interaction): 80 nM
association between captured FN and purified CD9 (FN [5]): specific association

KDEPQRETLKAIHYALNCCGLAGGVEQFISDICPKKDV [peptide 5b]
blocking of mAb7 binding to cell surface CD9 [2]: blocked mAb7 binding to soluble CD9 and to CD9 on intact cells
effect on adhesive phenotype of CHO A6 cells on FN (CHO A6 cells): equivalent to that of CHO MOCK cells; also recorded: reversed the adhesive phenotype; also recorded: reversed the inhibitory influence of CD9
